Experimental data: patent US6638951B1, “Benzamide derivatives and drugs containing the same” (Hokuriku Seiyaku Co., Ltd., priority 1999, dated 2003)
Where a name gives a salt, the structure may show the parent alone.

test system: not given; test: not given; conditions: not given

SMILES | melting point
CCCOC(=O)CN1CCC(NC(=O)c2cc(Cl)c(N)cc2OC)CC1 (as salt: methanesulfonate) [Example 2, n-Propyl 4-(4-amino-5-chloro-2-methoxybenzamido)-1-piperidineacetate] | 209 to 210 °C
CCCCOC(=O)CN1CCC(NC(=O)c2cc(Cl)c(N)cc2OC)CC1 (as salt: methanesulfonate) [Example 1, n-Butyl 4-(4-amino-5-chloro-2-methoxybenzamido)-1-piperidineacetate] | 209 to 211.5 °C
COc1cc(N)c(Cl)cc1C(=O)NC1CCN(CC(=O)OC(C)C)CC1 (as salt: hydrochloride) [Example 3, Isopropyl 4-(4-amino-5-chloro-2-methoxybenzamido)-1-piperidineacetate] | 125 to 130 °C

Other lines, results leading:

melting point | SMILES
141 to 144 °C | CCCCOC(=O)CN1CCC(NC(=O)c2cc(Cl)c(N)cc2OC)CC1 (as salt: hydrochloride) [Example 8, n-Butyl 4-(4-amino-5-chloro-2-methoxybenzamido)-1-piperidineacetate]
207 to 208 °C | COc1cc(N)c(Cl)cc1C(=O)NC1CCN(CC(=O)OCC(C)C)CC1 (as salt: methanesulfonate) [Example 4, Isobutyl 4-(4-amino-5-chloro-2-methoxybenzamido)-1-piperidineacetate]
133 to 137 °C | CCCCCCOC(=O)CN1CCC(NC(=O)c2cc(Cl)c(N)cc2OC)CC1 (as salt: hydrochloride) [Example 7, n-Hexyl 4-(4-amino-5-chloro-2-methoxybenzamido)-1-piperidineacetate]
202.5 to 203 °C | CCCCCOC(=O)CN1CCC(NC(=O)c2cc(Cl)c(N)cc2OC)CC1 (as salt: methanesulfonate) [Example 5, n-Pentyl 4-(4-amino-5-chloro-2-methoxybenzamido)-1-piperidineacetate]
111 to 112 °C | CCCCOC(=O)CN1CCC(NC(=O)c2cc(Cl)c(N)cc2OC)CC1 (as salt: methanesulfonate) [Example 9, n-Butyl 4-(4-amino-5-chloro-2-methoxybenzamido)-1-piperidineacetate]
199.5 to 201 °C | COc1cc(N)c(Cl)cc1C(=O)NC1CCN(CC(=O)OCCC(C)C)CC1 (as salt: methanesulfonate) [Example 6, Isopentyl 4-(4-amino-5-chloro-2-methoxybenzamido)-1-piperidineacetate]

test system: male ferrets; test: Emetic action in ferrets; format: in vivo; conditions: 16 hours fasting, 10 mg/kg p.o., during 2 hours after administration, 8 tested ferrets per compound
Protocol: The tested compound of Example 5 was used as a methanesulfonic acid salt, and the following compounds disclosed in Japanese Patent Unexamined Publication No. 5-262724/1993 were used as reference compounds:
Each test compound dissolved in 10% aqueous dimethyl sulfoxide solution was administered to male ferrets, weighing 0.9 to 1.3 kg, and 16 hours fasting, and then the incidence of vomiting was observed during 2 hours after the administration.

SMILES | Number of ferrets showing vomiting
CCCCOC(=O)CN1CCC(NC(=O)c2cc(Cl)c(N)cc2OC)CC1 [Example 1, n-Butyl 4-(4-amino-5-chloro-2-methoxybenzamido)-1-piperidineacetate] | 0
CCCCCOC(=O)CN1CCC(NC(=O)c2cc(Cl)c(N)cc2OC)CC1 [Example 5, n-Pentyl 4-(4-amino-5-chloro-2-methoxybenzamido)-1-piperidineacetate] | 0
CCCCCCOC(=O)CN1CCC(NC(=O)c2cc(Cl)c(N)cc2OC)CC1 [Example 7, n-Hexyl 4-(4-amino-5-chloro-2-methoxybenzamido)-1-piperidineacetate] | 1
CCOC(=O)CN1CCC(NC(=O)c2cc(Cl)c(N)cc2OC)CC1.Cl [Reference compound 2, Ethyl 4-(4-amino-5-chloro-2-methoxybenzamido)-1-piperidine-acetate hydrochloride, reference compound] | 8
COc1cc(N)c(Cl)cc1C(=O)NC1CCN(CC(=O)OCC(C)C)CC1 [Example 4, Isobutyl 4-(4-amino-5-chloro-2-methoxybenzamido)-1-piperidineacetate] | 1
COc1cc(N)c(Cl)cc1C(=O)NC1CCN(CC(=O)O)CC1.Cl [Reference compound 1, 4-(4-amino-5-chloro-2-methoxybenzamido)-1-piperidineacetic acid hydrochloride, reference compound] | 0
CCCOC(=O)CN1CCC(NC(=O)c2cc(Cl)c(N)cc2OC)CC1 [Example 2, n-Propyl 4-(4-amino-5-chloro-2-methoxybenzamido)-1-piperidineacetate] | 2
